Source: patent US12077503B2, “Substituted cyclic amides and their use as herbicides” (FMC CORPORATION, priority 2015, dated 2024)

Tests used:
Type in all cases: in vivo
Kochia (Kochia scoparia) [1] = assay: Test A preemergence; settings: Bassia scoparia, pre-emergence, 240 h, Preemergence
Procedure, shortened: (§1)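 Seeded soil received test chemicals as a preemergence directed spray, and seedlings at one to two leaves, 2–10 cm tall, received them postemergence, in a non-phytotoxic, surfactant-containing solvent mixture. Pots were held in a greenhouse for approximately 10 d, then rated for injury from 0, no effect, to 100, complete control.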

[2] = system: barnyardgrass (Echinochloa crus-galli); assay: Test A preemergence; settings: Echinochloa crus-galli, pre-emergence, 240 h, Preemergence
Procedure, shortened: as §1

[3] = system: giant foxtail (Setaria faberii); assay: Test A preemergence; settings: Setaria faberi, pre-emergence, 240 h, Preemergence
Procedure, shortened: as §1

[4] = system: pigweed (Amaranthus retroflexus); assay: Test A preemergence; settings: Amaranthus retroflexus, pre-emergence, 240 h, Preemergence
[5] = system: ragweed (common ragweed, Ambrosia elatior); assay: Test A preemergence; settings: Ambrosia artemisiifolia, pre-emergence, 240 h, Preemergence
Procedure, shortened: as §1

[6] = system: ryegrass, Italian (Italian ryegrass, Lolium multiflorum); assay: Test A preemergence; settings: Lolium multiflorum, pre-emergence, 240 h, Preemergence
Procedure, shortened: as §1

[7] = system: Galium (catchweed bedstraw, Galium aparine); assay: Test A postemergence; settings: Galium, post-emergence, 240 h, Postemergence, read-out: Galium plant response rating (0 to 100 scale)
Procedure, shortened: as §1

Kochia (Kochia scoparia) [8] = assay: Test A postemergence; settings: Bassia scoparia, post-emergence, 240 h, Postemergence, read-out: Kochia plant response rating (0 to 100 scale)
Procedure, shortened: as §1

[9] = system: barnyardgrass (Echinochloa crus-galli); assay: Test A postemergence; settings: Echinochloa crus-galli, post-emergence, 240 h, Postemergence
Procedure, shortened: as §1

[10] = system: blackgrass (Alopecurus myosuroides); assay: Test A postemergence; settings: Alopecurus myosuroides, post-emergence, 240 h, Postemergence, read-out: Blackgrass plant response rating (0 to 100 scale)
Procedure, shortened: as §1

corn (Zea mays) = assay: Test A postemergence; settings: Zea mays, post-emergence, 240 h, Postemergence, read-out: Corn plant response rating (0 to 100 scale)
Procedure, shortened: as §1

[11] = system: giant foxtail (Setaria faberii); assay: Test A postemergence; settings: Setaria faberi, post-emergence, 240 h, Postemergence, read-out: Foxtail, Giant plant response rating (0 to 100 scale)
Procedure, shortened: as §1

[12] = system: pigweed (Amaranthus retroflexus); assay: Test A postemergence; settings: Amaranthus retroflexus, post-emergence, 240 h, Postemergence, read-out: Pigweed plant response rating (0 to 100 scale)
Procedure, shortened: as §1

[13] = system: ragweed (common ragweed, Ambrosia elatior); assay: Test A postemergence; settings: Ambrosia artemisiifolia, post-emergence, 240 h, Postemergence, read-out: Ragweed plant response rating (0 to 100 scale)
Procedure, shortened: as §1

[14] = system: ryegrass, Italian (Italian ryegrass, Lolium multiflorum); assay: Test A postemergence; settings: Lolium multiflorum, post-emergence, 240 h, Postemergence, read-out: Ryegrass, Italian plant response rating (0 to 100 scale)
Procedure, shortened: as §1

[15] = system: wheat (Triticum aestivum); assay: Test A postemergence; settings: Triticum aestivum, post-emergence, 240 h, Postemergence, read-out: Wheat plant response rating (0 to 100 scale)
Procedure, shortened: as §1

[16] = system: barnyardgrass (Echinochloa crus-galli); assay: Test B flooded paddy test; settings: Echinochloa crus-galli, 360 h, Flood, 250 g ai/ha; visually evaluated after 13 to 15 d; read-out: Plant response rating, Barnyardgrass (0 to 100 scale where 0 is no effect and 100 is complete control)
Procedure, shortened: (§2)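 Flooding to 3 cm over soil accompanied treatment, which consisted of adding compound to the standing water around 2-leaf plants; depth was then maintained. Visual assessment versus controls followed at 13 to 15 d (scale 0–100, 0 meaning no effect).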

[17] = system: ducksalad (Heteranthera limosa); assay: Test B flooded paddy test; settings: Heteranthera limosa, 360 h, Flood, 250 g ai/ha; visually evaluated after 13 to 15 d; read-out: Plant response rating, Ducksalad (0 to 100 scale where 0 is no effect and 100 is complete control)
Procedure, shortened: as §2

rice (Oryra sativa) = assay: Test B flooded paddy test; settings: Oryza sativa, 360 h, Flood, 250 g ai/ha; visually evaluated after 13 to 15 d; read-out: Plant response rating, Rice (0 to 100 scale where 0 is no effect and 100 is complete control)
Procedure, shortened: as §2

[18] = system: sedge, umbrella (small-flower umbrella sedge, Cyperus difformis); assay: Test B flooded paddy test; settings: Cyperus difformis, 360 h, Flood, 250 g ai/ha; visually evaluated after 13 to 15 d; read-out: Plant response rating, Sedge, Umbrella (0 to 100 scale where 0 is no effect and 100 is complete control)
Procedure, shortened: as §2

[19] = 125 g ai/ha, visual rating about 10 d after treatment
[20] = 31 g ai/ha, 0 is no effect, 100 is complete control

Cc1cccc([C@H]2CN(C)C(=O)[C@@H]2C(=O)Nc2cccnc2F)c1 [Compound 1345] was tested. Which pest or weed control at 31 g/ha (Kochia (Kochia scoparia) [1]; 31 g ai/ha, 0 to 100 scale where 0 is no effect and 100 is complete control, read-out: Kochia plant response rating) did it give?
Its pest or weed control at 31 g/ha is 0%.

And the pest or weed control at 125 g/ha (Kochia (Kochia scoparia) [1]; 125 g ai/ha, 0 to 100 scale (0 no effect, 100 complete control), read-out: Plant response rating, Kochia)?
The pest or weed control at 125 g/ha was 40%.

What about the pest or weed control at 31 g/ha ([2]; 31 g ai/ha, 0 to 100 scale where 0 is no effect and 100 is complete control, read-out: Barnyardgrass plant response rating) of the same compound?
Its pest or weed control at 31 g/ha is 80%.

What about the pest or weed control at 125 g/ha ([2]; 125 g ai/ha, 0 to 100 scale (0 no effect, 100 complete control), read-out: Plant response rating, Barnyardgrass) of the same compound?
The pest or weed control at 125 g/ha was 100%.

And the pest or weed control at 31 g/ha ([3]; 31 g ai/ha, 0 to 100 scale where 0 is no effect and 100 is complete control, read-out: Foxtail, Giant plant response rating)?
Its pest or weed control at 31 g/ha is 90%.

And the pest or weed control at 125 g/ha ([3]; 125 g ai/ha, 0 to 100 scale (0 no effect, 100 complete control), read-out: Plant response rating, Foxtail, Giant)?
The pest or weed control at 125 g/ha was 100%.

And the pest or weed control at 31 g/ha ([4]; 31 g ai/ha, 0 to 100 scale where 0 is no effect and 100 is complete control, read-out: Pigweed plant response rating)?
The pest or weed control at 31 g/ha was 0%.

What about the pest or weed control at 125 g/ha ([4]; 125 g ai/ha, 0 to 100 scale (0 no effect, 100 complete control), read-out: Plant response rating, Pigweed) of the same compound?
The pest or weed control at 125 g/ha was 0%.

What about the pest or weed control at 31 g/ha ([5]; 31 g ai/ha, 0 to 100 scale where 0 is no effect and 100 is complete control, read-out: Ragweed plant response rating) of the same compound?
Its pest or weed control at 31 g/ha is 0%.

What about the pest or weed control at 125 g/ha ([5]; 125 g ai/ha, 0 to 100 scale (0 no effect, 100 complete control), read-out: Plant response rating, Ragweed) of the same compound?
Its pest or weed control at 125 g/ha is 60%.

What about the pest or weed control at 31 g/ha ([6]; 31 g ai/ha, 0 to 100 scale where 0 is no effect and 100 is complete control, read-out: Ryegrass, Italian plant response rating) of the same compound?
The pest or weed control at 31 g/ha was 0%.

What about the pest or weed control at 125 g/ha ([6]; 125 g ai/ha, 0 to 100 scale (0 no effect, 100 complete control), read-out: Plant response rating, Ryegrass, Italian) of the same compound?
Its pest or weed control at 125 g/ha is 0%.

What about the pest or weed control at 125 g/ha [7, 19] of the same compound?
Its pest or weed control at 125 g/ha is 20%.

What about the pest or weed control at 31 g/ha [7, 20] of the same compound?
The pest or weed control at 31 g/ha was 0%.

And the pest or weed control at 125 g/ha (Kochia (Kochia scoparia) [8]; [19])?
Its pest or weed control at 125 g/ha is 0%.

What about the pest or weed control at 31 g/ha (Kochia (Kochia scoparia) [8]; [20]) of the same compound?
Its pest or weed control at 31 g/ha is 0%.

And the pest or weed control at 125 g/ha ([9]; 125 g ai/ha, visual rating about 10 d after treatment, read-out: Barnyardgrass plant response rating (0 to 100 scale, 0 no effect, 100 complete control))?
The pest or weed control at 125 g/ha was 90%.

And the pest or weed control at 31 g/ha ([9]; 31 g ai/ha, 0 is no effect, 100 is complete control, read-out: Barnyardgrass plant response rating (0 to 100 scale))?
The pest or weed control at 31 g/ha was 50%.

What about the pest or weed control at 125 g/ha [10, 19] of the same compound?
Its pest or weed control at 125 g/ha is 20%.

What about the pest or weed control at 31 g/ha [10, 20] of the same compound?
The pest or weed control at 31 g/ha was 0%.

And the plant injury at 125 g/ha (corn (Zea mays); [19])?
Its plant injury at 125 g/ha is 0%.

What about the plant injury at 31 g/ha (corn (Zea mays); [20]) of the same compound?
The plant injury at 31 g/ha was 0%.

What about the pest or weed control at 125 g/ha [11, 19] of the same compound?
Its pest or weed control at 125 g/ha is 90%.

What about the pest or weed control at 31 g/ha [11, 20] of the same compound?
Its pest or weed control at 31 g/ha is 20%.

What about the pest or weed control at 125 g/ha [12, 19] of the same compound?
The pest or weed control at 125 g/ha was 0%.

And the pest or weed control at 31 g/ha [12, 20]?
The pest or weed control at 31 g/ha was 0%.

And the pest or weed control at 125 g/ha [13, 19]?
The pest or weed control at 125 g/ha was 0%.

And the pest or weed control at 31 g/ha [13, 20]?
Its pest or weed control at 31 g/ha is 0%.

What about the pest or weed control at 125 g/ha [14, 19] of the same compound?
The pest or weed control at 125 g/ha was 0%.

What about the pest or weed control at 31 g/ha [14, 20] of the same compound?
The pest or weed control at 31 g/ha was 0%.

And the plant injury at 125 g/ha [15, 19]?
The plant injury at 125 g/ha was 0%.

What about the plant injury at 31 g/ha [15, 20] of the same compound?
Its plant injury at 31 g/ha is 0%.

And the pest or weed control at 250 g/ha [16]?
Its pest or weed control at 250 g/ha is 90%.

And the pest or weed control at 250 g/ha [17]?
The pest or weed control at 250 g/ha was 95%.

And the pest or weed control at 250 g/ha (rice (Oryra sativa))?
The pest or weed control at 250 g/ha was 0%.

And the pest or weed control at 250 g/ha [18]?
Its pest or weed control at 250 g/ha is 0%.
